The values below come from patent publication US11612601B1, “Targeting epidermal growth factor to treat vascular calcification” (THE FLORIDA INTERNATIONAL UNIVERSITY BOARD OF TRUSTEES, priority 2022, dated 2023).

SMILES strings stand for the structures.

In one series the test system is Osteoblasts (hFOB 1.19). The series can be described thus: Matrix vesicles from osteoblast cultures: CAV1 and TNAP activity. It counts as cell-based, human. The settings on record: OS + 2.5 μM. Here is the method:
Osteoblasts (from human fetus, hFOB 1.19, ATCC, CRL-11372) were cultured and grown in DMEM containing 10% v/v bovine calf serum and 1% v/v penicillin-streptomycin. Osteoblasts (passage 4-6) were harvested using 0.25% trypsin-EDTA solution (Caisson Labs, TRL01), seeded with a density of 5,200 cell.cm^−2, and incubated for 24 hours at 37° C. and 5% CO2 with controlled humidity. The cells were treated in three groups of control, OS, and OS supplemented with tyrphostin AG1478 (2.5 μM) for 21 days and media changed every three days. […] Similar to the VSMC experiments, EV-free media were added to the cultures on days 6, 13, and 20, and collected 24 hours later on days 7, 14, and 21. Collected media were centrifuged at 1,000×g for 5 min to remove cell debris. EVs were isolated using the ultracentrifugation at 100,000×g for 1 hour.
For EV TNAP activity measurement, after ultracentrifugation at 100,000×g for 1 hour, the pellets were re-suspended in 120 μL buffer assay. […]
To quantify the total protein, the membranes were stained using 2% w/v Ponceau stain (Alfa Aesar, AAJ6074409) for 20 min, followed by one wash with 5% acetic acid and milliQ water for 5 min. After imaging, the intensity of each lane was measured in ImageJ for total protein normalization. […] The protein bands were visualized with Odyssey CLx scanner (Li-Cor), and quantified using Image Studio Lite software (Li-Cor).

For series [1], the system named is Primary human coronary artery vascular smooth muscle cells. The series is described as follows: VSMC extracellular matrix collagen (Sircol soluble collagen assay). To be noted: VSMCs, OS media, 2.5 μM, 28 days; p=0.10. The class given is cell-based. As for the experimental part: After 28 days of treatment, soluble collagen was extracted from the cultures using acetic acid (0.5 M) through overnight incubation at 4° C. A colorimetric assay, Sircol soluble collagen assay (Biocolor, S1000), measured the total soluble extracellular matrix (ECM) collagen in each group. Samples were prepared and assessed according to the manufacturer's protocol. Results were then normalized to the total protein measured using BCA assay.

Series [2] shares this test system. The series is described as follows: VSMC intracellular and cytosolic CAV1, EGFR, TNAP (immunoblot, activity assay, confocal). It counts as cell-based. To be noted: OS + 2.5 μM, 14 days. On the technique in general: Immunoblotting shows a protein as a band on a membrane.
Experimental: To assess the activity of intracellular tissue non-specific alkaline phosphatase (TNAP), a colorimetric assay kit (BioVision, K412) was used. VSMCs (n=3) after 14 days and osteoblasts (n=3) after 7 days, were lysed in 120 μL assay buffer. 80 μL of each sample were mixed with 50 μL of 5 mM pNPP solution and incubated for 60 min at 25° C. The colorimetric change resulting from the reaction was detected using a plate reader to measure absorbance at 405 nm. The results were normalized to the total protein for associated samples measured by a BCA protein assay (BioVision, K813).
VSMCs were treated with control, OS, and OS supplemented with tyrphostin AG1478 (2.5 μM) for 14 days. At the experiment endpoint, using a subcellular protein fraction kit for cultured cells (Thermofisher, 78840), cytosolic fraction was isolated according to the manufacturer's protocol. Briefly, VSMCs were harvested using 0.25% trypsin solution and resuspended in cytoplasmic extraction buffer. After 10 min incubation at 4° C., the samples were centrifuged at 1000×g for 5 min and the supernatants were collected as cytosolic fractions. The protein concentration for aortic tissue and VSMC fractions were quantified using a BCA assay and samples were prepared for protein immunoblotting.
After adding Laemmli SDS-sample buffer (1:4 v/v, Boston BioProducts, BP-110R) to each lysate, the samples were denatured at 100° C. for 10 min, loaded into 7.5-12% 1-mm SDS-PAGE gel (15 to 20 μg protein per lane), and run at 170 V. The proteins were then transferred to Trans-Blot turbo nitrocellulose membranes (BIO-RAD, 1704158) at 25 V for 7 min.
To quantify the total protein, the membranes were stained using 2% w/v Ponceau stain (Alfa Aesar, AAJ6074409) for 20 min, followed by one wash with 5% acetic acid and milliQ water for 5 min. After imaging, the intensity of each lane was measured in ImageJ for total protein normalization. Membranes were blocked with 5% w/v bovine serum albumin (HyClone, SH30574.01) in TBS-Tween (1×) for 1 hour. The membranes were incubated with primary antibodies of interest, including CAV1 (1:200, Abcam, ab2910), TNAP (1:200, Invitrogen, 702454), EGFR (1:00, EMD Millipore, 06-874), CD63 (1:200, Abeam, ab231975), GAPDH (1:100, Abcam, ab181602), and Annexin V (1:200, proteintech, 11060-1-AP) overnight at 4° C. After three washes with TBS-Tween (1×), the membranes were incubated with secondary antibody (1:1000, Li-Cor) for 1 hour, followed by three washes with TBS-Tween (1×). The protein bands were visualized with Odyssey CLx scanner (Li-Cor), and quantified using Image Studio Lite software (Li-Cor).
VSMCs were fixed after 14 days of culture using formalin (10%) for 15 min and washed with PBS. A solution of PBS and Triton X (0.1% v/v) permeabilized the plasma membrane for 10 min at room temperature. To avoid non-specific antibody binding, the cells were incubated with a blocking buffer solution, consisting of BSA (1% w/v) and glycine (22.5 mg/mL) in PBS for 30 min at room temperature. Next, the cells were incubated for 2 hours with primary antibody against CAV1 (1:200), and washed three times with PBS. Cells were then incubated with a secondary antibody, Alexa Fluor 594 (1:500, Abeam, ab150080) for 1 hour at room temperature, following by three washes with PBS. The nuclei were stained using DAPI (0.2 mg/mL, Cayman Chemical, 14285). […]
Series [3] relates to CKD mice. The series is described as follows: Serum EGFR level and serum TNAP activity in CKD mice. To be noted: 10 mg/kg daily, vs CKD. The class given is in vivo, mouse.
Experimental: Along with this calcifying diet, a group of mice (n=19) received daily tyrphostin AG1478 (10 mg/kg mouse, Millipore Sigma, T4182) via oral gavage. The remaining mice (n=19) received vehicle treatment (1% w/v, carboxymethylcellulose sodium salt, Sigma, C5678). For non-diseased controls, a third group of mice (n=12, 6 per biological sex) were fed a regular chow diet and received the vehicle for the final two weeks. During the oral gavage, animals were partially anesthetized using isoflurane (1%, Patterson Veterinary, 07-893-1389, in 2 L.min^−1 oxygen flow). […] At study endpoint, mice were anesthetized with isoflurane (1%, in 2 L.min^−1 oxygen flow) followed by retro-orbital bleeding for blood collection. Mice were then immediately euthanized by laceration of the diaphragm before tissue collection. […] For mice serum TNAP activity, the samples were diluted 1:20 and assessment was performed according to the manufacturer's protocol.
In series [4] the test system is CKD mice. The series can be described thus: Femur X-ray CT bone thickness and bone volume fraction in CKD mice. The class given is in vivo, mouse. As for the experimental part: Femurs were dissected from mice, wrapped in parafilm and imaged directly in a Nikon XT H 225 scanner (macro-CT, Nikon Metrology, Tring, UK). The raw transmission images were reconstructed using commercial image reconstruction software package (CT Pro 3D, Nikon Metrology, Tring, UK), which employs a filtered back-projection algorithm. The scan was performed using 80 kV beam energy, 70 μA beam current, and a power of 5.6 W. A PerkinElmer 1620 flat panel detector was used, with 200 μm pixel size. The resulting effective pixel size was 5 μm. The exposure time per projection was 0.5 s, and a total of 1601 projections were acquired, resulting in a scanning time of approximately 13 minutes per sample. Bone structural parameters, including thickness and volume fraction (the ratio of bone volume (BV) to total volume (TV)), for both cortical and trabecular regions were assessed using a plug-in module, BoneJ, in ImageJ (NIH, USA).

For `COc1cc2ncnc(Nc3cccc(Cl)c3)c2cc1OC` [AG1478, tyrphostin AG1478], the “CAV1 protein on matrix vesicles released by osteoblasts” value in the series on Osteoblasts (hFOB 1.19) (compared to control, days 14 and 21) is reported as “lower levels”. Besides, in the series with Osteoblasts (hFOB 1.19) (days 7, 14, 21), the “TNAP activity of matrix vesicles released by osteoblasts” value is on record as “significantly increased”. Moreover, the ECM collagen accumulation result in series [1] is on record as “did not affect”. The “intracellular TNAP activity in VSMCs” value in series [2] (compared to control) was “elevated”. For the same molecule, the “cytosolic TNAP in VSMCs” value in series [2] (compared to control (p=0.003) and OS (p=0.005)) is reported as “elevated”. The “cytosolic CAV1 in VSMCs” value in series [2] (compared to control (p=0.02) and OS (p=0.04)) is recorded as “elevated”. In series [2] (compared to control group), the “total level of intracellular CAV1 in VSMCs” value was “significantly increased”. Further, in series [2] (p=0.84), the “intracellular EGFR protein in VSMCs” value is given as “prevented the OS-induced increase”. Also, the “serum TNAP activity” value in the series on CKD mice [3] (p=0.06) is recorded as “did not significantly reduce”. In addition, the “level of serum EGFR” value in the series with CKD mice [3] (p=0.78) is listed as “no significant difference”. Further, the “thickness of cortical bone” value in the series on CKD mice [4] (CKD mice treated vs CKD, p=0.004) is “increased”. For the same molecule, the “thickness of trabecular bone, metaphysical region” value with CKD mice [4] (CKD mice treated vs CKD, p=0.02) is “increased”. Moreover, the “thickness of trabecular bone, epiphyseal region” value in the series with CKD mice [4] (CKD mice treated vs CKD, p=0.04) is on record as “increased”. Further, in the series on CKD mice [4] (compared to CKD animals, p=0.002), the “bone volume fraction in trabecular bone, metaphysical region” value was “increased”. Besides, in the series on CKD mice [4] (compared to CKD animals, p=0.009), the “bone volume fraction in trabecular bone, epiphyseal region” value is given as “increased”. Also, the “bone volume fraction in cortical bone” value in the series with CKD mice [4] (compared to CKD animals, p=0.25) is “did not significantly change”.
